Laboratory results reported in US20250195508A1, “COMPOUNDS AND COMPOSITIONS FOR ANITMALARIAL THERAPEUTIC AND PROPHYLACTIC USE” (UNIVERSITY OF CENTRAL FLORIDA RESEARCH FOUNDATION, INC., priority 2022, published 2025).
“Also recorded” adds a separate entry of the source.

Tests used:
HepG2 human liver cell = assay: CellTiter 96 AQueous MTS cytotoxicity counter-screen (selectivity index); assay type: cell-based
Method: To establish the utility of kinase inhibitor compounds synthesized in the Gray laboratory as a source of novel antimalarial activities, the libraries (containing 1,100 compounds) were screened using the well-established SYBR Green I-based fluorescence assay as known in the art. This screen yielded 34 compounds with EC50<500 nM in the CQ^R Dd2 strain. These hits were subjected to counter-screening against human HepG2 cells using CellTiter 96® AQueous (Promega™) MTS-based cell proliferation assay to identify asexual and liver stage antiplasmodial hits.
(§1) P. falciparum Dd2 EC50 was determined using SYBR Green I assay. For the selectivity index ([…]) cytotoxicity was determined using CellTiter 96® AQueous MTS. The liver stage assay was performed using P. berghei luciferase expressing parasites. All assays were performed with technical quadruplicates and 3 biological replicates. Assays have a Z′ factor >0.7.

[1] = tested on: P. berghei luciferase expressing parasites; assay: Liver stage assay with luciferase expressing parasites; assay type: cell-based; settings: Plasmodium berghei, read-out: Liver Stage EC50 (nM) ± SD
Method: as §1

P. berghei ANKA = assay: Treatment of established P. berghei ANKA luciferase infection in mice, IVIS imaging; assay type: in vivo; settings: 50 mg/kg p.o. once daily for 4 days from 72 hours post-infection; imaging day 7
Method: Mice infected with P. berghei ANKA (10^3 iRBC) expressing luciferase were treated with 50 mg/kg TL5-135 or chloroquine orally once daily 72 hours post-infection for 4 days. Imaging was done 7 days after infection following a 150 mg/kg D-luciferin injection with an IVIS.

[2] = tested on: P. berghei luc sporozoites (Pb-Luc); assay: Prophylaxis assay, single IV dose 6 hours before Pb-Luc sporozoite infection; assay type: in vivo, mice
Method: (§2) TL5-135 was dissolved or resuspended in a suspending vehicle consisting of 30% DMSO, 1% methylcellulose, 0.5% TWEEN-80, and 68.5% ultrapure water. GNF179 was resuspended in 30% DMSO, 30% PEG400, 5% TWEEN-80, 35% saline, and administered intravenously.
(§3) For prophylaxis assays, a single dose of […] was administrated 6 hours before infection. For therapeutic assays, in a 4-day's Peters test, 4 doses (each 15 mg/kg) were administrated 6, 18, 30, and 42 hours post infection.
(§4) The antimalarial activity was measured as a percent reduction in parasitemia from day one until day twelve post-infection.
Infection was initiated using 100,000 P. berghei luc sporozoites (Pb-Luc). The drugs were administered IV at 50 mg/kg, single dose 6 hours prior. I: infected, UI: uninfected.
(§5) Groups of 5 mice were infected with 100,000 Pb-Luc sporozoites by IV injection. Prophylactic (single dose of 50 mg/kg through IV injection, 6 hour before infection) and therapeutic (4-day Peters test, 4 doses of 15 mg/kg each time were administrated post-infection at 6, 18, 30, and 42 hours post infection (hpi) and the activity of the compounds was evaluated. See FIG. 8A. The parasitemia was estimated after flow cytometric enumeration of rodent malaria parasite Pb-Luc-infected red blood cells (RBS) stained with SYBR Green I, from day 3 until 20.
(§6) TL5-135 and GNF179 antimalarial compounds were tested against Pb-Luc sporozoites. Prophylactic activity (single dose of 15 mg/kg through an IV injection, 6 hours before infection) and therapeutic activity (4-day Peters test, 4 doses of 15 mg/kg each time was administrated at 6, 18, 30, and 42 hpi of the TL5-135 antimalarial compound was evaluated. As before, groups of five mice were infected with 100,000 Pb-Luc sporozoites by IV injection. The parasitemia was estimated after flow cytometric enumeration of rodent malaria parasite Pb-Luc-infected red blood cells (RBS) stained with SYBR Green I, from day 3 until day 20. See FIG. 8B.

Pb-Luc sporozoites = assay: Therapeutic assay, 4-day Peters test against Pb-Luc sporozoites; assay type: in vivo, mice; settings: therapeutic, 4 doses of 15 mg/kg
Method: as §2, §3, §4
However, the mice treated with TL5-135 as a therapeutic had about 2.4% parasitemia after 12 days post-infection (all negative control mice died between days 11-13). The parasitemia on day 21 (21 days post-infection) for the group of mice was 35%.
as §5, §6

P. falciparum strain Dd2 = assay: Stage specificity assay; assay type: cell-based; settings: for Stage specific action, treated at early ring stage: 400 nM (5×EC50) at 6 hours post infection for 12 hours
Method: Asexual stage P. falciparum cultures were synchronized by MACS magnetic column, followed 3 hours later by treatment with 5% sorbitol to select for rings. Six hours after invasion, parasites were plated onto a 96-well plate at 1% parasitemia and 1% hematocrit, maintained at 37° C. in 5% CO2, and compound was added at 5×EC50 to the 6 HPI wells. Every 12 hours, until reinvaded rings (54 HPI), thin blood smear slides for Giemsa-stain were taken, and samples were washed and fixed in 4% paraformaldehyde in PBS with 0.04% glutaraldehyde. At the conclusion of the timepoints, all samples were permeabilized with 0.25% Triton X-100 before being treated with 50 μg/mL RNase A and stained with 500 nM YOYO-1. Samples were then washed, and flow cytometric analysis was performed with a CytoFLEX S™, collecting 100,000 events per sample. Analysis was performed with FlowJo™ software Version 10.
The stage specific action of the prioritized hits was determined as follows. Synchronized cultures of P. falciparum strain Dd2 were exposed to 400 nM (5×EC50) compound at 6 hours post infection for 12 hours and fixed samples labeled with YOYO-1 dye were analyzed by flow cytometry and microscopy using Giemsa-stained thin smears.

P. falciparum Dd2 = assay: Rate of killing assay; assay type: cell-based; settings: 10×EC50, 12-hour exposure then wash off
Method: Asynchronous P. falciparum Dd2 cultures were plated at 1% parasitemia, 4% hematocrit into a 24-well plate, incubated at 37° C. in 5% CO2. Wells were treated with 10×EC50 of compound for 12, 24, or 48 hours before the compound was removed. Every 24 hours thereafter for 4 days total, culture samples were washed in 0.5% BSA and stained with 1×SYBR Green I and 60 μM MitoTracker Deep Red FM for 20 minutes at 37° C. After another wash in 0.5% BSA, samples were resuspended in PBS and analyzed via flow cytometry with a CytoFLEX S™, with 100,000 events recorded per sample. For gating, the following controls were used: uninfected RBCs, untreated culture, DHA-treated culture, and untreated culture without MitoTracker stain. Viable parasite percentage was determined by finding the fraction of SYBR Green/MitoTracker double positive cells from the total events. Analysis was performed with FlowJo software Version 10.
Asynchronous cultures of P. falciparum Dd2 parasites were treated with 10×EC50 of the indicated compound for 12 hours prior to compound wash off. Flow cytometry with SYBR Green I (nuclear dye) and Mitotracker Deep Red FM (mitochondria staining) was done after compound wash-off every 24 hours after for […] (100,000 events/sample) to track parasitemia (data from 3 biological replicates±SEM).

in vitro = in vitro ADME; settings: mouse liver microsomes; read-out: t1/2 in mouse liver microsomes

CCN1CCN(Cc2ccc(NC(=O)c3cc(Cl)cc(NC(=O)c4cncc(-c5cccs5)c4)c3)cc2C(F)(F)F)CC1 [TL5-135]
Selectivity Index (SI) (HepG2 human liver cell): 116
EC50 [1]: 108 ± 35 nM
Effect on established P. berghei infection (P. berghei ANKA): eliminates established P. berghei ANKA infection; also recorded: eliminate established Plasmodium. berghei infections in mice
Condition of mice after prophylactic treatment ([2]; single dose 15 mg/kg 6 hours before infection, after 22 days): still healthy and alive
Prophylactic activity ([2]; single dose 50 mg/kg IV 6 hours prior to infection with 100,000 Pb-Luc sporozoites): has prophylactic activity; also recorded: prevent infection
Parasitemia 12 days post-infection (Pb-Luc sporozoites; 12 days post-infection): about 2.4%
Parasitemia on day 21 (Pb-Luc sporozoites; 21 days post-infection): 35%
Stage specific action, treated at early ring stage (P. falciparum strain Dd2): blocks ring to trophozoite maturation
Stage specific action, treated at early ring stage (P. falciparum strain Dd2; listed as TL-135): block ring to trophozoite maturation
Stage specific action, added at trophozoite and schizont stages (P. falciparum strain Dd2; data not shown): blocks maturation of asexual parasites
Killing profile (P. falciparum Dd2): pronounced irreversible killing
Killing profile (P. falciparum Dd2; listed as TL-135): exhibited a killing effect
half-life (in vitro): 1.32 h
